Bridge positions count the residues as written; N and C are the ends. Peptide text beside a SMILES is read from it.
How the values were obtained:
[1] = biological target: T1, Neuropeptide Y receptor type 2 (Homo sapiens, UniProt P49146); experiment: Displacement of human [125I]PYY from NPY2 receptor expressed in human KAN-TS cells; assay type: cell-based
T1 sequence (P49146 whole entry): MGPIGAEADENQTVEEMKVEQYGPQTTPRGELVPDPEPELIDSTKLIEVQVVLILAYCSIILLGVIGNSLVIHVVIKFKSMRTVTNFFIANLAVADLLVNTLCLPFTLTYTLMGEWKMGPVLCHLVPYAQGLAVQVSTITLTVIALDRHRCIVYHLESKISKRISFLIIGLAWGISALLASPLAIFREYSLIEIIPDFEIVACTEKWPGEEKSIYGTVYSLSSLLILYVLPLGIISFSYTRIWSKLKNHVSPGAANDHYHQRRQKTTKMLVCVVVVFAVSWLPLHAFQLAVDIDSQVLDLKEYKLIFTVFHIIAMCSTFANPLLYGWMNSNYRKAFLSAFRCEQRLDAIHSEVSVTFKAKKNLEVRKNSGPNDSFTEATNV

[2] = biological target: T2, Neuropeptide Y receptor type 1 (Homo sapiens, UniProt P25929); experiment: Displacement of [125I]PYY from NPY1 receptor expressed in human SK-N-MC cells; assay type: cell-based
T2 sequence (P25929 whole entry): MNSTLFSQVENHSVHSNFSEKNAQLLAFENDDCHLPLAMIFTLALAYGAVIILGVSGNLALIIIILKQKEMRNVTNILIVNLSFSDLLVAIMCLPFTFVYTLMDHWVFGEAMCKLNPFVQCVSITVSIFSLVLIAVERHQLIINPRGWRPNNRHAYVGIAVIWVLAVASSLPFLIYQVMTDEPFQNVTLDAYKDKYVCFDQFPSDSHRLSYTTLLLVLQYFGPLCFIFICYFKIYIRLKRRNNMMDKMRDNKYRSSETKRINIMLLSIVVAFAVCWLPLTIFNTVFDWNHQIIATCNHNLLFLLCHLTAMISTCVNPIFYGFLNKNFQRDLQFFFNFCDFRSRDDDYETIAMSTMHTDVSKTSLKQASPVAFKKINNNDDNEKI

[3] = biological target: T1, Neuropeptide Y receptor type 2; experiment: Agonist activity at human NPY2 receptor expressed in human KAN-TS cells by [35S]GTP-gamma-S incorporation assay; assay type: functional, cell-based
[4] = biological target: T3, Neuropeptide Y receptor type 5 (Homo sapiens, UniProt Q15761); experiment: Displacement of [125I]PYY from NPY5 receptor expressed in human HEK293 cells; assay type: cell-based
T3 sequence (Q15761 whole entry): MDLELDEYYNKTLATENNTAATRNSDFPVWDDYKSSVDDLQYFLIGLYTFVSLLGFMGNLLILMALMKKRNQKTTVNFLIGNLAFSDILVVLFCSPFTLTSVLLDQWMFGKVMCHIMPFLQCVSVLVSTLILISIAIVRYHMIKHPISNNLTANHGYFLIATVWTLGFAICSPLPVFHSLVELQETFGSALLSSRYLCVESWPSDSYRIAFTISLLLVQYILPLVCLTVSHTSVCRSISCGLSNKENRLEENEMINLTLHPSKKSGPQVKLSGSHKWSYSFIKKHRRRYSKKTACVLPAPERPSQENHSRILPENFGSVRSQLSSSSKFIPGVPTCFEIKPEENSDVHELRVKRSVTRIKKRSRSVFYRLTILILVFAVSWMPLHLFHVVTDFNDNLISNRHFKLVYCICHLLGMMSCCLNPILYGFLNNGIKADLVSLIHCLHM

Row | Ki [1] [nM] | Ki [2] [nM] | EC50 [3] [nM] | Ki [4] [nM] | Ki ([1]; kan-ts) [nM] | Ki ([2]; sk-n-mc) [nM] | Ki ([4]; hek293) [nM] | EC50 ([3]; kan-ts) [nM] | Compound
1 | 9 | 118 | 13 |  |  |  |  |  | CC(=O)N[C@@H](C)C(=O)N[C@@H](CO)C(=O)N[C@@H](CC(C)C)C(=O)N[C@@H](CCCNC(=N)N)C(=O)N[C@@H](Cc1cnc[nH]1)C(=O)N[C@@H](Cc1ccc(O)cc1)C(=O)N[C@@H](CC(C)C)C(=O)N[C@@H](CC(N)=O)C(=O)N[C@@H](CC(C)C)C(=O)N[C@H](C(=O)N[C@H](C(=O)N[C@@H](CCCNC(=N)N)C(=O)N[C@@H](CCC(N)=O)C(=O)N[C@@H](CCCNC(=N)N)C(=O)N[C@@H](Cc1ccc(O)cc1)C(N)=O)[C@@H](C)O)C(C)C
2 | 670 | > 1000 | 430 | > 1000 |  |  |  |  | Ac-HYLNLVTRQRY-NH2
3 |  |  |  |  | 75 | > 1000 | > 1000 | 31 | CC[C@H](C)[C@@H]1NC(=O)[C@H](CC(C)C)NC(=O)[C@H](CC(N)=O)NC(=O)[C@@H](NC(=O)[C@H](Cc2ccc(O)cc2)NC(=O)[C@H](Cc2cnc[nH]2)NC(=O)[C@H](CCCN=C(N)N)NC(C)=O)CCCCNC(=O)CC[C@@H](C(=O)N[C@@H](CCCN=C(N)N)C(=O)N[C@@H](CCC(N)=O)C(=O)N[C@@H](CCCN=C(N)N)C(=O)N[C@@H](Cc2ccc(O)cc2)C(N)=O)NC1=O (Ac-RHYKNLIERQRY-NH2; lactam 4-8)
